Assay [1] is described as follows: Inhibition of alpha glucosidase (unknown origin) using p-nitrophenyl-a-D-glucopyranoside as substrate incubated for 20 mins by UV based microplate reading method. More on the design: species or system Homo sapiens.
A short description of assay [2]: Inhibition of human carboxylesterase using 4-benzoyl-N-butyl-1,8-naphthalimide as substrate by fluorescence based assay.
Assay [3] relates to PC-12. The experiment in a line: Neuroprotective activity against mNGF-differentiated rat PC-12 cells assessed as inhibition of caspase 9. It is filed as functional, cell-based.
Assay [4] has as its system PC-12. Briefly: Neuroprotective activity against mNGF-differentiated rat PC-12 cells assessed as inhibition of caspase 3. It is filed as functional, cell-based.
A further assay relates to RAW264.7. The experiment in a line: Inhibition of LPS-induced NO release in mouse RAW264.7 cells preincubated for 2 hrs followed by LPS addition measured after 24 hrs. In kind it is functional, cell-based.
Assay [5] is described as follows: Inhibition of alpha glucosidase (unknown origin) using p-nitrophenyl alpha-D-glucoside as substrate preincubated for 60 mins followed by substrate addition measured after 30 mins by spectrophotometric analysis. Further details: species or system Homo sapiens.
The nature of assay [6]: Inhibition of LPS-induced NO release in mouse N9 microglial cells measured after 48 hrs by Griess reaction assay. It is filed as functional, cell-based. The note with it: N9, 48 h.
In assay [7] the target is T1, Acetylcholinesterase (Homo sapiens, UniProt P22303). Briefly: Inhibition of AChE (unknown origin) incubated for 20 mins by Ellman's method.
The next assay deals with Rattus norvegicus. The experiment in a line: Hypotensive effect against Phe-induced contraction in rat mesentric arteries assessed as relaxation effect […]. In kind it is functional.
The target in assay [8] is T1, Acetylcholinesterase. Briefly: Inhibition of AChE (unknown origin) using acetylcholine as substrate by BioTek Synergy HT microplate reader method.
The target in assay [9] is T2, Melatonin receptor type 1A (Homo sapiens, UniProt P48039). The experiment in a line: Agonist activity at human MT1R stably expressed in HEK293 cells by FlexStation3 Bench-top MultiMode Microplate Reader. In kind it is functional, cell-based.
For assay [10], the target named is T3, Melatonin receptor type 1B (Homo sapiens, UniProt P49286).
T3 sequence (P49286 whole entry): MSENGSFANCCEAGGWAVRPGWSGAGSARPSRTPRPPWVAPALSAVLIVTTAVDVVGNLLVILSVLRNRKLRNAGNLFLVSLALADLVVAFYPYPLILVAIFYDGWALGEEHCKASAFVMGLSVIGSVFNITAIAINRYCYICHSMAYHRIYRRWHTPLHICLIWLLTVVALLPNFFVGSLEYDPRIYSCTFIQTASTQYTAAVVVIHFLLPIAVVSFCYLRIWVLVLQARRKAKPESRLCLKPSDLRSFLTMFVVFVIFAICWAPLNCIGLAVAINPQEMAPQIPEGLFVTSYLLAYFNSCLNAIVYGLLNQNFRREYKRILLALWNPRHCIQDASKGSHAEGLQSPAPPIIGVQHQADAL
Briefly: Agonist activity at human MT2R stably expressed in HEK293 cells by FlexStation3 Bench-top MultiMode Microplate Reader. It is filed as functional, cell-based.

The target of assay [11] is T2, Melatonin receptor type 1A. The experiment in a line: Agonist activity at human MT1R stably expressed in HEK293 cells at 1 mM by FlexStation3 Bench-top MultiMode Microplate Reader relative to control. The following applies: filed as agonist. It is filed as functional, cell-based.
For assay [12], the target named is T4, Melatonin receptor type 1B (Homo sapiens) (UniProt P49286).
T4 sequence (whole entry): T3 sequence (P49286 whole entry)
The experiment in a line: Agonist activity at human MT2R stably expressed in HEK293 cells at 1 mM by FlexStation3 Bench-top MultiMode Microplate Reader relative to control. It is filed as functional, cell-based. The following applies: filed as agonist.

The species entered for assay [13] is Mus musculus. The experiment in a line: Antiinflammatory activity against Balb/c mouse serum assessed as inhibition of IL-17 release measured after 2 hrs by cytokine Elisa multiplex Q-plex system method relative to control. In kind it is functional. More on the design: scale not given: the % may be the effect or the level left.
The species named for assay [14] is Mus musculus. The experiment in a line: Antiinflammatory activity against Balb/c mouse serum assessed as reduction of IL-4 release measured after 2 hrs by cytokine Elisa multiplex Q-plex system method relative to control. It is filed as functional. Further details: scale not given: the % may be the effect or the level left.
The species named for assay [15] is Mus musculus. Briefly: Antiinflammatory activity against Balb/c mouse serum assessed as inhibition of TNF-alpha release measured after 2 hrs by cytokine Elisa multiplex Q-plex system method relative to control. In kind it is functional. More on the design: scale not given: the % may be the effect or the level left.
For assay [16], the species on record is Mus musculus. Briefly: Antiinflammatory activity against Balb/c mouse serum assessed as inhibition of IL-1alpha release measured after 2 hrs by cytokine Elisa multiplex Q-plex system method relative to control. In kind it is functional. More on the design: scale not given: the % may be the effect or the level left.
The species entered for assay [17] is Mus musculus. The experiment in a line: Antiinflammatory activity against Balb/c mouse serum assessed as inhibition of IL-1beta release measured after 2 hrs by cytokine Elisa multiplex Q-plex system method relative to control. In kind it is functional. More on the design: scale not given: the % may be the effect or the level left.

T1 sequence (P22303 whole entry): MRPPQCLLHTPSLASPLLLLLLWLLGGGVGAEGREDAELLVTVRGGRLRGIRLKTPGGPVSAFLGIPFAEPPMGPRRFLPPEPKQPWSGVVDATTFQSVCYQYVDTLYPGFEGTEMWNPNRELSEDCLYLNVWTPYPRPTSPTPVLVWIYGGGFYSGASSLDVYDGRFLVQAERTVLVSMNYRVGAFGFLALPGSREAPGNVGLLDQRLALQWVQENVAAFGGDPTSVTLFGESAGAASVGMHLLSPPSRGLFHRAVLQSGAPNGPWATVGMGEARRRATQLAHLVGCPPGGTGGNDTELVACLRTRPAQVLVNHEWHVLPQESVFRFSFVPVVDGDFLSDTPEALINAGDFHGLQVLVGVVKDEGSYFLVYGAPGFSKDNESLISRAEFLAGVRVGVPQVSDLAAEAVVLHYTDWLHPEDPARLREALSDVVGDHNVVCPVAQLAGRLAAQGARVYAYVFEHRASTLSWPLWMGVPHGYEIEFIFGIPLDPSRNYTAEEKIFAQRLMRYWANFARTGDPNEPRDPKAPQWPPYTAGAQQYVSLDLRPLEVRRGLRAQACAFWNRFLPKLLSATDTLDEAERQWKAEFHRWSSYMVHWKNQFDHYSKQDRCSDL
T2 sequence (P48039 whole entry): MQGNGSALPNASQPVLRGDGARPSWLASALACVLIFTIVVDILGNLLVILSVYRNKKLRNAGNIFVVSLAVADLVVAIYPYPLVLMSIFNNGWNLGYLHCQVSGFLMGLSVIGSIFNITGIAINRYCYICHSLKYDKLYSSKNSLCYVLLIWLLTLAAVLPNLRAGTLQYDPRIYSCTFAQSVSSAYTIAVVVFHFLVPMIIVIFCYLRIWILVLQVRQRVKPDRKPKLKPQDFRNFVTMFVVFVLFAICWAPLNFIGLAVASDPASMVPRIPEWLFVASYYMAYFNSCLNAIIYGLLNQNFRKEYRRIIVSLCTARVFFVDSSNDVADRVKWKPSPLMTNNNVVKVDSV

Regarding `O=C1CC[C@H](Cc2ccc(O)c(O)c2)O1`, the IC50 in assay [1] was 27 µM.
Compound `CC1(C)CC[C@]2(C(=O)O)CC[C@]3(C)C(=CC[C@@H]4[C@@]5(C)CC[C@H](O)C(C)(C)[C@@H]5CC[C@]43C)[C@@H]2C1` [OLEANOLIC_ACID] gave an IC50 in [2] of 4.01 µM.
The same measure, in the same setting: next, `C[C@H]1[C@H](C)CC[C@]2(C(=O)O)CC[C@]3(C)C(=CC[C@@H]4[C@@]5(C)CC[C@H](O)C(C)(C)[C@@H]5[C@H](O)C[C@]43C)[C@H]12`: 4.01 µM.
For the compound `C=C[C@H]1[C@H](O[C@@H]2O[C@H](CO)[C@@H](O)[C@H](O)[C@H]2O)OC=C(C(=O)OC)[C@H]1C[C@@H]1N[C@H](C(=O)O)Cc2c1[nH]c1ccccc21`, the IC50 in the assay on PC-12 [3] was determined as 24.5 µM; in the assay on PC-12 [4] it was 25.6 µM.
Compound `Oc1cc(O)c2c(c1)O[C@H](c1ccc(O)c(O)c1)[C@@H](O)[C@@H]2c1c(O)cc(O)c2c1O[C@H](c1ccc(O)c(O)c1)[C@@H](O)C2` showed an IC50 in assay [1] of 17.3 µM.
For `C=C1CC[C@]2(C(=O)O)CC[C@]3(C)C(=CC[C@@H]4[C@@]5(C)CC[C@H](O)C(C)(C)[C@@H]5[C@H](O)C[C@]43C)[C@@H]2[C@]1(C)O`, inhibition in the assay with RAW264.7 was half-maximal at 1.48 µM (IC50).
In the case of `C[C@H]1[C@H](C)CC[C@]2(C(=O)O)CC[C@]3(C)C(=CC[C@@H]4[C@@]5(C)CC[C@H](O)C(C)(C)[C@@H]5CC[C@]43C)[C@H]12` [URSOLIC ACID], the IC50 came out at 16 µM in assay [5] and 4.01 µM in [2].
As for `C=C[C@@H]1C(C[C@@H]2NCCc3c2[nH]c2ccccc32)C(C(=O)OC)=CO[C@H]1O[C@@H]1O[C@H](CO)[C@@H](O)[C@H](O)[C@H]1O` (stereo partly specified), the IC50 in assay [6] was 8.3 µM.
On Acetylcholinesterase [7], `C=C[C@H]1COC(=O)C2=CN3CCc4c([nH]c5cccc(O[C@@H]6O[C@H](CO)[C@@H](O)[C@H](O)[C@H]6O)c45)[C@@H]3C[C@H]21` gave an IC50 of 21.1 µM.
With `CO[C@H]1C=C2[C@@H]3C[C@H](C)CC[C@]3(C(=O)O)CC[C@@]2(C)[C@]2(C)CC[C@H]3C(C)(C)[C@@H](O)CC[C@]3(C)[C@@H]12`, the IC50 in assay [2] came out at 4.01 µM.
For the compound `CC[C@H]1CN2CCc3c([nH]c4ccccc34)[C@H]2C[C@H]1/C(=C\OC)C(=O)OC`, the IC50 with Rattus norvegicus worked out at 0.18 µM.
For `C[C@H]1[C@H](C)CC[C@]2(C(=O)O)CC[C@]3(C(=O)/C=C/c4ccc(O)cc4)C(=CC[C@@H]4[C@@]5(C)CC[C@H](O)C(C)(C)[C@@H]5CC[C@]43C)[C@H]12`, the IC50 with RAW264.7 was determined as 7.01 µM.
Turning to `C/C=C1\CN2CCc3c([nH]c4ccccc34)[C@@H]2C[C@@H]1/C(=C\OC)C(=O)OC`, the IC50 on Acetylcholinesterase [8] was 63.9 µM.
Regarding `Oc1cc(O)c2c(c1)O[C@H](c1ccc(O)c(O)c1)[C@@H](O)C2` [CIANIDANOL], the EC50 came out at 25.8 µM in assay [9] and 47.3 µM in [10].
`COCC1=C(C)[C@H]2C3=CC[C@@H]4[C@@]5(C)CC[C@H](O)C(C)(C)[C@@H]5C(=O)C[C@@]4(C)[C@]3(C)CC[C@@]2(C(=O)O)CC1` returned an IC50 in assay [5] of 49 µM.
Turning to `C=C[C@H]1[C@H](O[C@@H]2O[C@H](CO)[C@@H](O)[C@H](O)[C@@H]2O[C@@H]2O[C@H](CO[C@@H]3O[C@H](CO)[C@@H](O)[C@H](O)[C@H]3O)[C@@H](O)[C@H](O)[C@H]2O)OC=C2C(=O)N3CCc4c([nH]c5cc(O)ccc45)[C@H]3C[C@H]21`, the Activity in [11] is 79.6%; in assay [12] it was 46.3%.
Consider `COC(=O)C1=CO[C@@H](C)[C@H]2CN3CC[C@]4(C(=O)Nc5ccccc54)[C@@H]3CC12` (stereo partly specified), for which the Activity was determined as 50% in the assay listed under Mus musculus [13]; 40% in the assay listed under Mus musculus [14]; 50% in the assay filed under Mus musculus [15]; 50% in the assay listed under Mus musculus [16]; 50% in the assay listed under Mus musculus [17].
`Cc1cc2c(cc1O)OC1(CC1)C(O)C2` (stereo unspecified) yielded an IC50 in assay [1] of 15.5 µM.
